Data as given in PubChem BioAssay AID1963979 (Molecular Pharmacology Branch, DTP, NCI, 2024).
Several values for one entry are separate records, joined by “and”; a condition that tells them apart may be missing. Equal entries are not always repeated.

Test system: 361931-004-R-J1-PDC multicell spheroid viability
Experiment: Anticancer human tumor 361931-004-R-J1-PDC patient-derived colon adenocarcinoma cell line growth inhibition [PI3K]
Conditions: for viability, T/C: stronger effect = lower value
Text: Combinatorial screen of targeted agents with the PI3K inhibitors inavolisib, alpelisib, duvelisib, and copanlisib in multi-cell type tumor spheroids
A high-throughput screen of multi-cell type tumor spheroids was designed to identify active combinations of targeted small molecules and PI3K pathway inhibitors. Complex spheroids include a stromal component modeled by human endothelial cells (HUVEC) and fibroblasts modeled by human mesenchymal stem cells (MSCs). The concentration ranges selected for each drug and investigational agent were based upon clinically achievable concentrations if the clinical Cmax of the agent was known.
Compounds. The drugs and investigational agents: inavolisib (NSC800729), alpelisib (NSC765974), duvelisib (NSC772469), copanlisib (NSC816437), ipatasertib (NSC767898), afuresertib (NSC778305), talazoparib (NSC767125), sapanisertib (NSC764658), selumetinib (NSC741078), tovorafenib (DAY101, NSC766906), vemurafenib (NSC761431), ravoxertinib (NSC781343), sotorasib (NSC818433), MRTX1133 (NSC 836407), abemaciclib (NSC 768073), palbociclib (NSC758247), venetoclax (NSC 766270), SY5609 (NSC837396), enzalutamide (NSC755605), and darolutamide (NSC825331), were obtained from the National Cancer Institute (NCI) Developmental Therapeutics Program Chemical Repository. The FDA-approved anticancer drug set is available from the NCI Developmental Therapeutics Program. […] The stock solutions were prepared in dimethyl sulfoxide (DMSO, Sigma-Aldrich, St. Louis, MO, cat. D2650) at 800-fold the tested concentration and stored at -70 degrees C prior to their use. All drugs and investigational agents were tested over a range starting from a high concentration at or near the clinical Cmax and decreasing in half-log increments. If the clinical Cmax for an agent had not been determined, the highest concentration tested was 10 microM.
Cell Culture. All cells were maintained in an incubator at 37 degrees C and 5% CO2 with 95% humidity. The PDC lines were cultured according to standard operating procedures established by the NCI PDMR (https://pdmr.cancer.gov/sops/default.htm). All PDCs were thawed and cultured in Matrigel-coated flasks prepared with a working solution of 1X Ham's F-12 nutrient mix, without supplementation (Invitrogen, Waltham, MA, cat. 11765054), 100 U/mL penicillin-streptomycin (Invitrogen, cat. 15140122), and 2.5% Matrigel (Corning Inc., Corning, NY, cat. 354248) for the first three passages. The 354836-022-R-J1-PDC, 475296-252-R-J1-PDC, and 997726-040-R-J2-PDC lines were cultured in 6A media, which includes advanced DMEM/F-12 (Thermo Fisher Scientific, cat. 12634028), 10 mM HEPES (Thermo Fisher Scientific, cat. 15630080), 1X GlutaMAX supplement (Thermo Fisher Scientific, cat. 35050061), 0.1 mg/mL primocin (InvivoGen, San Diego, CA, cat. ant-pm-2), 10% defined fetal bovine serum, heat inactivated (HyClone Laboratories Inc., Logan, UT, cat. SH30070.03HI), 50% L-WRN conditioned media (ATCC, cat. CRL-3276), 1.25 mM N-Acetyl-L-cysteine (Sigma-Aldrich, cat. A9165), 10 mM nicotinamide (Sigma-Aldrich, cat. N0636), 1X B-27 supplement (Thermo Fisher Scientific, cat. 17504044), 1X N-2 supplement (Thermo Fisher Scientific, cat. 17502048), and 10 microM Y-27632 dihydrochloride (Tocris Bioscience, Bristol, United Kingdom, cat. 1254). The 624824-186-R-J2-PDC line was cultured in 6C/Colon 1B media, which includes all 6A media components plus 50 ng/mL human EGF recombinant protein (Thermo Fisher Scientific, cat. PHG0311). […]
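Also: spheroids exposed to agents for seven days before readout.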

C[C@@H](NC(=O)c1ncnc(N)c1Cl)c1ncc(C(=O)Nc2cc(C(F)(F)F)c(Cl)cn2)s1 + Cc1nc(NC(=O)N2CCCC2C(N)=O)sc1-c1ccnc(C(C)(C)C(F)(F)F)c1
IC50 (curve of first compound, second compound 0.0316 µM): > 10 µM
IC50 (curve of first compound, second compound 0.1 µM): > 10 µM
IC50 (curve of first compound, second compound 0.316 µM): > 10 µM
IC50 (curve of first compound, second compound 1 µM): > 10 µM
IC50 (curve of first compound, second compound 3.16 µM): 4.93 µM
IC50 (curve of first compound, second compound 10 µM): 0.41 µM
viability, T/C (second compound 0.0316 µM, first compound 0.0316 µM): 104%
viability, T/C (second compound 0.0316 µM, first compound 0.1 µM): 106%
viability, T/C (second compound 0.0316 µM, first compound 0.316 µM): 80.8%
viability, T/C (second compound 0.0316 µM, first compound 1 µM): 97.3%
viability, T/C (second compound 0.0316 µM, first compound 3.16 µM): 92.9%
viability, T/C (second compound 0.0316 µM, first compound 10 µM): 85.5%
viability, T/C (second compound 0.1 µM, first compound 0.0316 µM): 110%
viability, T/C (second compound 0.1 µM, first compound 0.1 µM): 104%
viability, T/C (second compound 0.1 µM, first compound 0.316 µM): 89.1%
viability, T/C (second compound 0.1 µM, first compound 1 µM): 106%
viability, T/C (second compound 0.1 µM, first compound 3.16 µM): 92.9%
viability, T/C (second compound 0.1 µM, first compound 10 µM): 80.5%
viability, T/C (second compound 0.316 µM, first compound 0.0316 µM): 102%
viability, T/C (second compound 0.316 µM, first compound 0.1 µM): 100%
viability, T/C (second compound 0.316 µM, first compound 0.316 µM): 99.3%
viability, T/C (second compound 0.316 µM, first compound 1 µM): 89%
viability, T/C (second compound 0.316 µM, first compound 3.16 µM): 101%
viability, T/C (second compound 0.316 µM, first compound 10 µM): 78%
viability, T/C (second compound 1 µM, first compound 0.0316 µM): 104%
viability, T/C (second compound 1 µM, first compound 0.1 µM): 95.8%
viability, T/C (second compound 1 µM, first compound 0.316 µM): 93.3%
viability, T/C (second compound 1 µM, first compound 1 µM): 88.8%
viability, T/C (second compound 1 µM, first compound 3.16 µM): 84.2%
viability, T/C (second compound 1 µM, first compound 10 µM): 60.9%
viability, T/C (second compound 3.16 µM, first compound 0.0316 µM): 89.9%
viability, T/C (second compound 3.16 µM, first compound 0.1 µM): 84.8%
viability, T/C (second compound 3.16 µM, first compound 0.316 µM): 76.1%
viability, T/C (second compound 3.16 µM, first compound 1 µM): 70.4%
viability, T/C (second compound 3.16 µM, first compound 3.16 µM): 67.1%
viability, T/C (second compound 3.16 µM, first compound 10 µM): 31%
viability, T/C (second compound 10 µM, first compound 0.0316 µM): 77.8%
viability, T/C (second compound 10 µM, first compound 0.1 µM): 59%
viability, T/C (second compound 10 µM, first compound 0.316 µM): 55.6%
viability, T/C (second compound 10 µM, first compound 1 µM): 41.7%
viability, T/C (second compound 10 µM, first compound 3.16 µM): 22%
viability, T/C (second compound 10 µM, first compound 10 µM): 3.55%

CC(=O)c1c(C)c2cnc(Nc3ccc(N4CCNCC4)cn3)nc2n(C2CCCC2)c1=O
viability, T/C (compound 0.000316 µM): 103% [middle of 4 runs]
viability, T/C (compound 0.001 µM): 105% [middle of 4 runs]
viability, T/C (compound 0.00316 µM): 100% [middle of 4 runs]
viability, T/C (compound 0.01 µM): 103% [middle of 4 runs]
viability, T/C (compound 0.0316 µM): 108% (2×) and 92.8% and 104%
viability, T/C (compound 0.1 µM): 86.5% [middle of 4 runs]
IC50 (curve of compound): > 0.1 µM
